From patent US10064834B2, “Carbidopa for the treatment of cancer” (Texas Tech University System, priority 2016, dated 2018)
Read-outs that look alike come from different tables or passages of the source.

Legend:
AhR [1] = system: AhR
Method: With a fixed concentration (10 μM), the inventors compared in HepG2 cells the induction of CYP1A1 by Carbidopa with that by other known AhR agonists, which included 3-ethylcholanthrene, benzo[a]pyrene, kynurenine, indole-3-carbinol, and indole acetic acid (Table 1).

AhR [2] = details: BxPC-3, Carbidopa 10 μM, 6 h
AhR [3] = details: Capan-2
[4] = system: spontaneous breast cancer driven by the polyoma middle T antigen oncogene; test: Spontaneous breast cancer in MMTV-PyMT-Tg mice; type: in vivo; details: 1 mg/mouse i.p.
From the text: The MMTV-PyMT-Tg mice develop spontaneous breast tumors within 2 months of age. […] The drug treatment was started at 4 weeks of age and continued for two months. The mice were photographed at the end of this experimental period. The circles indicate the tumor size in two representative control mice and two representative Carbidopa-treated mice. […] The MMTV-PyMT-Tg mice develop spontaneous breast tumors within 2 months of age. […] The drug treatment was started at 4 weeks of age and continued for three months. The mice were photographed at the end of the study period. The circles indicate the tumor size in two representative control mice and two representative Carbidopa-treated mice.

hTERT-HPNE cells = test: Colony formation (clonogenic) assay, normal pancreatic cell line; type: cell-based, human; details: 10 μM, two weeks
Method: (§1) Cell proliferation. Clonogenic assay was performed as described. The cells were seeded at a very low density (500 cells/well) and allowed to attach to the substratum. […] The wells were washed every other day and fresh Carbidopa was added to the wells. At the end of the two-week period, the wells were washed and the colonies were visualized with KaryoMax Giemsa stain after fixation with methanol. The stain was eluted with 1% sodium dodecyl sulfate in […] and the absorbance was measured at 630 nm. Inhibition of pancreatic cancer cell proliferation by Carbidopa and its potential relevance to the ability of the drug to inhibit IDO1. To test whether Carbidopa has anticancer effect, the inventors used pancreatic cancer as a model. For this, the inventors first conducted a colony formation assay with a human pancreatic normal cell line (hTERT-HPNE) and two human pancreatic cancer cell lines (BxPC-3 and Capan-2). […] To corroborate these in vitro data, the inventors performed subcutaneous xenografts in athymic nude mice using BxPC-3 cells.

[5] = cited from earlier work
[6] = system: Ki-67, p-mTOR, HIF1α and Cyp1a1 protein expression; test: Immunohistochemical analysis in MMTV-PyMT-Tg mice; type: in vivo, mouse; details: Carbidopa-treated MMTV-PyMT-Tg mice
From the text: FIG. 8 is an immunohistochemical analysis of Ki-67, p-mTOR, HIF1α and Cyp1a1 protein expression in MMTV-PyMT-Tg mice treated with and without Carbidopa. […] Hypoxia is a key regulatory factor in tumor progression and in response to the hypoxic tumor environment, it regulates cell metabolism and redox homeostasis. HIF1α level in tumors is controlled by mTOR. […] To further validate the data, the inventors measured the expression of Cyp1a1 in MMTV-PyMT-Tg mice treated with and without Carbidopa. Cyp1a1 is an aryl hydrocarbon (AhR) receptor-responsive gene induced in response to AhR activation. AhR is activated by kynurenine, a product of IDO1 action on tryptophan. Thus, Cyp1a1 levels in tumor tissues serve as a read out for IDO1 activity. […] H&E, hematoxylin and eosin stain.

[7] = in vivo; cited from earlier work
AhR [8] = test: Immunofluorescence localisation of AhR; type: cell-based, human; details: 25 μM for 6 h
Method: Immunofluorescence. Immunofluorescence studies were performed as described [12]. Briefly, cells grown on chamber slides were fixed, blocked and stained with mouse anti-AhR antibody (Abcam, Cambridge, Mass., USA) for 45 min after which they were washed and stained with secondary antibody (goat anti-mouse IgG) conjugated with Alexa Fluor 488 (Molecular Probes, Eugene, Oreg., USA); further washed and mounted with ProLong Diamond Antifade mountant with DAPI and the images were captured using a Nikon inverted microscope. Nuclei stained with DAPI are blue. Magnification, 100×.

BxPC-3 cells [9] = test: Colony formation (clonogenic) assay, BxPC-3; type: cell-based, human
Method: Clonogenic assay was performed as described [12]. The cells were seeded at a very low density (500 cells/well) and allowed to attach to the substratum. They were then treated with 10 μM Carbidopa and the colonies were allowed to grow for two weeks. The wells were washed every other day and fresh Carbidopa was added to the wells. At the end of the two-week period, the wells were washed and the colonies were visualized with KaryoMax Giemsa stain after fixation with methanol. The stain was eluted with 1% sodium dodecyl sulfate in 0.2 NaOH and the absorbance was measured at 630 nm.

[10] = molecular target: recombinant human indoleamine dioxygenase-1 (IDO1) (Homo sapiens, UniProt P14902); test: IDO1 enzymatic activity assay (colorimetric); type: biochemical
From the text: IDO-1 is an immunosuppressive enzyme that is induced in tumor cells and in immune cells present in tumor-draining lymph nodes. Induction of this enzyme suppresses the ability of the immune system to recognize tumor cells as foreign cells, which provides a means for the tumor cells to escape the immune attack. Pharmacological inhibition of this enzyme has potential in cancer treatment because such an approach will potentiate the ability of the immune system to kill the tumor cells. Many pharmaceutical companies have research programs in identifying selective inhibitors of IDO-1 for this purpose and some of the drugs are already in clinical trials in cancer patients. The present inventors assessed the ability of Carbidopa on the activity of this enzyme using the recombinant human enzyme.
To date, the only known pharmacological action of Carbidopa is the inhibition of aromatic amino acid decarboxylase, but the inventors are not aware of any direct association between this enzyme and cancer. Therefore, the inventors looked for new, hitherto unknown, pharmacological actions for this drug that could be related to the observed anticancer effect. […]

[11] = in vivo; cited from earlier work; remark: listed apart in the source
Capan-2 cells = test: Colony formation (clonogenic) assay, Capan-2; type: cell-based, human; details: Capan-2, 10 μM, two weeks
Method: as §1

Panc-1 cells = test: Colony formation assay, Panc-1; type: cell-based; details: Homo sapiens; Panc-1, colony formation; read-out: Carbidopa concentration for 50% inhibition of growth
From the text: Colony formation assay was used to assess the effect.

BxPC-3 cells [12] = test: Subcutaneous BxPC-3 xenograft in athymic nude mice; type: in vivo, mouse
Method: FIGS. 2A and 2B show the in vivo effect of Carbidopa on the growth of BxPC-3 cells in mouse xenografts. The cells were injected subcutaneously in athymic nude mice. Carbidopa (1 mg/mouse) was injected intraperitoneally (i.p.) two days prior to the injection of the tumor cells (prevention mode). Drug injection was continued every day at the same dose. […] The growth of the tumor at the injected site was monitored every other day.
Xenograft studies. Female athymic nu/nu mice (8-week-old) were allowed to acclimatize to the environment for about a week before the start of the experiment. The animals were divided into control and treatment groups and injected with phosphate-buffered saline (control group) and Carbidopa @ 1 mg/mouse/day) (treatment group) intraperitoneally, at least 5 days prior to tumor cell injection. BxPC-3 (10×10^6 cells in 30% matrigel) was injected subcutaneously at the right flank of the mice. The treatment continued all through the experimental period. Tumor size in different groups were measured using a caliper and the tumor volume was calculated using the formula (width^2×length)/2.

MB-231 cells = test: Colony formation assay, ER-negative breast cancer cells; type: cell-based, human
From the text: Breast cancer occurs in different subtypes: estrogen receptor-positive, estrogen receptor-negative, and BRCA1-mutant. The MMTV-PyMT-Tg mice represent estrogen receptor-positive breast cancer at least at the initial stages. To assess the potential of Carbidopa for the treatment of ER-negative breast cancer, the inventors used the human breast cancer cell line MB-231, a well-established model to study ER-negative breast cancer in model systems. The inventors monitored the effect of Carbidopa (dose response) on the growth of these cells using the colony formation assay.

HCC-1937 cells = test: Colony formation assay, BRCA-1 mutant breast cancer cells; type: cell-based, human
From the text: Breast cancer occurs in different subtypes: estrogen receptor-positive, estrogen receptor-negative, and BRCA1-mutant. Mutations in BRCA-1 represent a small percentage of breast cancers in women but the disease is inheritable. […] To assess the potential of Carbidopa for the treatment of mutant BRCA-1-driven breast cancer, the inventors used the human breast cancer cell line HCC-1937, a well-established model to study mutant BRCA-1-driven breast cancer in model systems. The inventors monitored the effect of Carbidopa (dose response) on the growth of these cells using the colony formation assay.

[13] = human, oral, cited from earlier work
[14] = molecular target: indoleamine-2,3-dioxygenase 1 (IDO1) (Homo sapiens, UniProt P14902); details: reference [13]; cited from earlier work
Sequence of indoleamine-2,3-dioxygenase 1 (IDO1) (P14902 whole entry): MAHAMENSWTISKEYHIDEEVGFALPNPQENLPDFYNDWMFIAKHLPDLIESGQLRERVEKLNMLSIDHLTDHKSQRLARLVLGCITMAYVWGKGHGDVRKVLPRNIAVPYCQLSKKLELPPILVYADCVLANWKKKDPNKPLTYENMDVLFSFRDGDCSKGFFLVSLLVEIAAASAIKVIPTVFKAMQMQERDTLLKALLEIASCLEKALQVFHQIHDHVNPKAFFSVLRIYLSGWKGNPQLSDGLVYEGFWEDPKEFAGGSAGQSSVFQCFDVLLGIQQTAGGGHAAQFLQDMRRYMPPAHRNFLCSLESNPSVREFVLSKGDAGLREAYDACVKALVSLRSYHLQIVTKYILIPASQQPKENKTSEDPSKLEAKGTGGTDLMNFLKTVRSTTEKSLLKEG

Sequence of recombinant human indoleamine dioxygenase-1 (IDO1) (P14902 whole entry): as above

Cc1ccc2cc3c(ccc4ccccc43)c3c2c1CC3 [3-Methylcholanthrene]
CYP1A1 expression, Fold [range] (AhR [1]; HepG2 cells, 10 micromolar): 56.8 Fold

c1ccc2c(c1)cc1ccc3cccc4ccc2c1c34 [Benzo [a] pyrene]
CYP1A1 expression, Fold [range] (AhR [1]; HepG2 cells, 10 micromolar): 35.3 Fold

Cc1ccccc1N=Nc1ccc(NC(=O)c2ccnn2C)c(C)c1 [CH223191]
effect of AhR antagonist on Carbidopa-induced CYP1A1 expression (AhR [2]): blocked
effect of AhR antagonist on Carbidopa-induced CYP1A1 expression (AhR [1]; HepG2, Carbidopa 10 μM, CH223191 10 μM, resveratrol 20 μM, 6 h): blocked
effect of AhR antagonist on Carbidopa-induced CYP1A1 expression (AhR [3]): blocked

C[C@@](Cc1ccc(O)c(O)c1)(NN)C(=O)O [Carbidopa, (2S)-3-(3,4-dihydroxyphenyl)-2-hydrazino-2-methylpropanoic acid]
number and size of the tumors ([4]; treatment for three months): reduced the number and size of the tumors
number and size of the tumors ([4]; treatment for two months): reduced the number and size of the tumors
number of colonies compared to untreated controls (hTERT-HPNE cells): not seen
concentrations at which Carbidopa activates AhR (AhR [1]): 3000 to 10000 nM
CYP1A1 expression, Fold [range] (AhR [1]; human, 10 μM): 2.63 Fold
time post-treatment at which CYP1A1 induction is seen (AhR [1]; human, 10 μM): ≤ 3 h
side effects in humans ([5]; <400 mg/day in patients weighing 60 kg): no unwanted side effects
safety in humans ([5]; dose as high as 450 mg/day): safe
Cyp1a1 expression in tumor tissues [6]: significant reduction in Cyp1a1 expression
HIF1α protein [6]: marked decrease in HIF1α protein
Ki-67 staining (cell proliferation) [6]: marked reduction in proliferation
p-mTOR staining [6]: marked reduction in p-mTOR staining
oral bioavailability [7]: orally bioavailable
localisation of AhR (AhR [8]; BxPC-3 cells): nuclear translocation of the receptor
localisation of AhR (AhR [8]; Capan-2 cells): nuclear translocation of the receptor
localisation of AhR (AhR [8]; HepG2 cells): led to the nuclear translocation of AhR
growth of BxPC-3 cells (BxPC-3 cells [9]; 10 μM Carbidopa, colony formation): almost completely abolished
number of colonies compared to untreated controls (BxPC-3 cells [9]; BxPC-3, 10 μM, two weeks): significantly reduced
inhibition of IDO-1 enzyme activity ([10]; 10 μM): inhibits IDO-1 significantly
inhibition of IDO1 enzyme activity ([10]; colorimetric assay of kynurenine, efficacy said to be markedly underestimated): does indeed inhibit IDO1
crossing of the blood-brain barrier [11]: inability of the latter to cross the blood-brain barrier
number of colonies compared to untreated controls (Capan-2 cells): significantly reduced
IC50 (Panc-1 cells): < 50 µM
growth of the tumor (BxPC-3 cells [12]; 1 mg/mouse i.p. every day, prevention mode): reduced the growth of the tumor markedly
tumor volume compared to untreated controls (BxPC-3 cells [12]; daily dose of 1 mg/mouse, intraperitoneal): significantly reduced the tumor volume
IC50 (MB-231 cells; Homo sapiens, MB-231, colony formation, read-out: Carbidopa concentration for 50% inhibition of growth): < 15 µM
effect on the growth of the cells (MB-231 cells; MB-231, dose response): marked inhibitory effect
effect on the growth of the cells (HCC-1937 cells; HCC-1937, dose response): marked inhibitory effect
IC50 (HCC-1937 cells; Homo sapiens, HCC1937, HCC-1937, colony formation, read-out: Carbidopa concentration for 50% inhibition of growth): < 25 µM
plasma concentration ([13]; 75 mg/day dose): 2000 nM
plasma concentration ([13]; 450 mg/day dose): 16000 nM

OCc1c[nH]c2ccccc12 [Indole 3-carbinol]
CYP1A1 expression, Fold [range] (AhR [1]; HepG2 cells, 10 micromolar): 7.62 Fold

Nc1ccccc1C(=O)CC(N)C(=O)O (stereo not shown) [Kynurenine]
CYP1A1 expression, Fold [range] (AhR [1]; human, 10 μM): 3.97 Fold

N[C@@H](Cc1ccc(O)c(O)c1)C(=O)O [L-DOPA, L-3,4-dihydroxyphenylalanine]
CYP1A1 mRNA expression (AhR [1]; human, 6 h, 100 μM): did not affect CYP1A1 expression

NNc1ccccc1 [phenylhydrazine]
IC50 [14]: 8 ± 2 µM
